Assay results: ChEMBL document CHEMBL1255229, “Novel antimicrobial peptides that exhibit activity against select agents and other drug resistant bacteria” (2010)
Converted amounts (≈) assume the structure as drawn. Starred links: 1 amine or outer side, 2 acyl side, 3 side chain; linkers in the order of their positions; H or OH if unused. Non-standard residues stand in square brackets, D forms with d. Residues, ends and D or L forms follow the SMILES beside them. ξ: configuration not given here. Pro(3ξ,4ξ-(CH2)4) = O=C(O)[C@H]1NCC2CCCCC21; X1 = O=C([C@@H]1CN([*:1])C2CCCCC21)[*:2]; Phe(4-F) = N[C@@H](Cc1ccc(F)cc1)C(=O)O; Tic = O=C(O)[C@@H]1Cc2ccccc2CN1; Orn = NCCC[C@H](N)C(=O)O; Dab = NCC[C@H](N)C(=O)O

Key:
Type in all cases: functional
Burkholderia mallei = assay: Antimicrobial activity against Burkholderia mallei ATCC 23444 after 24 hrs; settings: ATCC 23444, 24 h
Acinetobacter baumannii [1] = assay: Antimicrobial activity against Acinetobacter baumannii ATCC 19606 after 24 hrs; settings: ATCC 19606 = CIP 70.34 = JCM 6841, 24 h
[2] = system: Burkholderia pseudomallei; assay: Antimicrobial activity against Burkholderia pseudomallei BURK003(1026b) after 24 hrs
Francisella tularensis = assay: Antimicrobial activity against Francisella tularensis SCHU-S4 after 24 hrs; settings: SCHU-S4, 24 h
Brucella melitensis = assay: Antimicrobial activity against Brucella melitensis 16 M after 24 hrs
Brucella suis = assay: Antimicrobial activity against Brucella suis ATCC 23445 after 24 hrs; settings: ATCC 23445, 24 h
Bacillus anthracis = assay: Antimicrobial activity against Bacillus anthracis Ames after 24 hrs
Staphylococcus aureus = assay: Antimicrobial activity against methicillin-resistant Staphylococcus aureus ATCC 33591 after 24 hrs; settings: ATCC 33591, 24 h
Yersinia pestis = assay: Antimicrobial activity against Yersinia pestis CO92 after 24 hrs; settings: CO92, 24 h
Acinetobacter baumannii [3] = assay: Antimicrobial activity against Acinetobacter baumannii WRAIR after 24 hrs
Brucella abortus = assay: Antimicrobial activity against Brucella abortus 2308 after 24 hrs; settings: Brucella abortus, 2308, 24 h

| Structure (SMILES) | MIC (Burkholderia mallei) | MIC (Acinetobacter baumannii [1]) | MIC [2] | MIC (Francisella tularensis) | MIC (Brucella melitensis) | MIC (Brucella suis) | MIC (Bacillus anthracis) | MIC (Staphylococcus aureus) | MIC (Yersinia pestis) | MIC (Acinetobacter baumannii [3]) | MIC (Brucella abortus) |
| --- | --- | --- | --- | --- | --- | --- | --- | --- | --- | --- | --- |
| CC(C)C[C@H](NC(=O)[C@@H](N)CCCN)C(=O)N1Cc2ccccc2C[C@H]1C(=O)N1C[C@@H](C(=O)N[C@@H](CCCN)C(=O)N2Cc3ccccc3C[C@H]2C(=O)N2C[C@@H](C(=O)N[C@@H](Cc3ccccc3)C(=O)N3Cc4ccccc4C[C@H]3C(=O)N3C[C@@H](C(=O)N[C@@H](CCCN)C(=O)N4Cc5ccccc5C[C@H]4C(=O)N4C[C@@H](C(=O)N[C@@H](Cc5ccccc5)C(=O)N5Cc6ccccc6C[C@H]5C(=O)N5C[C@@H](C(=O)N[C@@H](CCCN)C(=O)N6Cc7ccccc7C[C@H]6C(=O)N6C[C@@H](C(=O)N[C@@H](CCCN)C(=O)N[C@@H](CCCN)C(=O)N[C@@H](CCCN)C(=O)N[C@@H](CCCN)C(N)=O)C7CCCCC76)C6CCCCC65)C5CCCCC54)C4CCCCC43)C3CCCCC32)C2CCCCC21 (stereo not given in full) (H-[Orn]L[Tic][X1][Orn][Tic][X1]F[Tic][X1][Orn][Tic][X1]F[Tic][X1][Orn][Tic][X1][Orn][Orn][Orn][Orn]-NH2) | 156 µM (≈ 499 µg/mL) | 9.77 µM (≈ 31.3 µg/mL) | 156 µM (≈ 499 µg/mL) | 156 µM (≈ 499 µg/mL) | 156 µM (≈ 499 µg/mL) | 156 µM (≈ 499 µg/mL) | 156 µM (≈ 499 µg/mL) | 156 µM (≈ 499 µg/mL) | 156 µM (≈ 499 µg/mL) | 156 µM (≈ 499 µg/mL) | 156 µM (≈ 499 µg/mL) |
| CC(=O)NCC(=O)N[C@@H](Cc1ccc(F)cc1)C(=O)N1Cc2ccccc2C[C@H]1C(=O)N1CC2CCCCC2[C@H]1C(=O)NCC(=O)N[C@@H](CCCCN)C(=O)N1Cc2ccccc2C[C@H]1C(=O)N1CC2CCCCC2[C@H]1C(=O)NCC(=O)N[C@@H](Cc1ccc(F)cc1)C(=O)N1Cc2ccccc2C[C@H]1C(=O)N1CC2CCCCC2[C@H]1C(=O)NCC(=O)N[C@@H](CCCCN)C(=O)N1Cc2ccccc2C[C@H]1C(=O)N[C@@H](CCCCN)C(=O)N[C@@H](CCCCN)C(=O)N[C@@H](CCCCN)C(=O)N[C@@H](CCCCN)C(N)=O (stereo not given in full) (Ac-G[Phe(4-F)][Tic][Pro(3ξ,4ξ-(CH2)4)]GK[Tic][Pro(3ξ,4ξ-(CH2)4)]G[Phe(4-F)][Tic][Pro(3ξ,4ξ-(CH2)4)]GK[Tic]KKKK-NH2) | 202 µM (≈ 500 µg/mL) | 3.1 µM (≈ 7.68 µg/mL) | 202 µM (≈ 500 µg/mL) | 202 µM (≈ 500 µg/mL) | 202 µM (≈ 500 µg/mL) | 202 µM (≈ 500 µg/mL) | 12.6 µM (≈ 31.2 µg/mL) | 101 µM (≈ 250 µg/mL) | 202 µM (≈ 500 µg/mL) | 6.2 µM (≈ 15.4 µg/mL) | 202 µM (≈ 500 µg/mL) |
| CC(=O)NCC(=O)N[C@@H](Cc1ccccc1)C(=O)N1Cc2ccccc2C[C@H]1C(=O)N1C[C@@H](C(=O)NCC(=O)N[C@@H](CCN)C(=O)N2Cc3ccccc3C[C@H]2C(=O)N2C[C@@H](C(=O)NCC(=O)N[C@@H](Cc3ccccc3)C(=O)N3Cc4ccccc4C[C@H]3C(=O)N3C[C@@H](C(=O)NCC(=O)N[C@@H](CCN)C(=O)N4Cc5ccccc5C[C@H]4C(=O)N[C@@H](CCN)C(=O)N[C@@H](CCN)C(=O)N[C@@H](CCN)C(=O)N[C@@H](CCN)C(N)=O)C4CCCCC43)C3CCCCC32)C2CCCCC21 (stereo not given in full) (Ac-GF[Tic][X1]G[Dab][Tic][X1]GF[Tic][X1]G[Dab][Tic][Dab][Dab][Dab][Dab]-NH2) | 220 µM (≈ 500 µg/mL) | 3.4 µM (≈ 7.73 µg/mL) | 220 µM (≈ 500 µg/mL) | 220 µM (≈ 500 µg/mL) | 220 µM (≈ 500 µg/mL) | 220 µM (≈ 500 µg/mL) | 6.8 µM (≈ 15.5 µg/mL) | 220 µM (≈ 500 µg/mL) | 220 µM (≈ 500 µg/mL) | 3.4 µM (≈ 7.73 µg/mL) | 220 µM (≈ 500 µg/mL) |
| CC(=O)NCC(=O)N[C@@H](Cc1ccccc1)C(=O)N1Cc2ccccc2C[C@H]1C(=O)N1C[C@@H](C(=O)NCC(=O)N[C@@H](CCCN)C(=O)N2Cc3ccccc3C[C@H]2C(=O)N2C[C@@H](C(=O)NCC(=O)N[C@@H](Cc3ccccc3)C(=O)N3Cc4ccccc4C[C@H]3C(=O)N3C[C@@H](C(=O)NCC(=O)N[C@@H](CCCN)C(=O)N4Cc5ccccc5C[C@H]4C(=O)N[C@@H](CCCN)C(=O)N[C@@H](CCCN)C(=O)N[C@@H](CCCN)C(=O)N[C@@H](CCCN)C(N)=O)C4CCCCC43)C3CCCCC32)C2CCCCC21 (stereo not given in full) (Ac-GF[Tic][X1]G[Orn][Tic][X1]GF[Tic][X1]G[Orn][Tic][Orn][Orn][Orn][Orn]-NH2) | 212 µM (≈ 500 µg/mL) | 6.6 µM (≈ 15.6 µg/mL) | 212 µM (≈ 500 µg/mL) | 106 µM (≈ 250 µg/mL) | 106 µM (≈ 250 µg/mL) | 106 µM (≈ 250 µg/mL) | 0.82 µM (≈ 1.93 µg/mL) | 53 µM (≈ 125 µg/mL) | 26.5 µM (≈ 62.5 µg/mL) | 6.6 µM (≈ 15.6 µg/mL) | 106 µM (≈ 250 µg/mL) |
| CC(C)C[C@H](NC(=O)[C@@H](N)CCCCN)C(=O)N1Cc2ccccc2C[C@H]1C(=O)N1C[C@@H](C(=O)N[C@@H](CCCCN)C(=O)N2Cc3ccccc3C[C@H]2C(=O)N2C[C@@H](C(=O)N[C@@H](Cc3ccccc3)C(=O)N3Cc4ccccc4C[C@H]3C(=O)N3C[C@@H](C(=O)N[C@@H](CCCCN)C(=O)N4Cc5ccccc5C[C@H]4C(=O)N4C[C@@H](C(=O)N[C@@H](Cc5ccccc5)C(=O)N5Cc6ccccc6C[C@H]5C(=O)N5C[C@@H](C(=O)N[C@@H](CCCCN)C(=O)N6Cc7ccccc7C[C@H]6C(=O)N6C[C@@H](C(=O)N[C@@H](CCCCN)C(=O)N[C@@H](CCCNC(=N)N)C(N)=O)C7CCCCC76)C6CCCCC65)C5CCCCC54)C4CCCCC43)C3CCCCC32)C2CCCCC21 (stereo not given in full) (H-KL[Tic][X1]K[Tic][X1]F[Tic][X1]K[Tic][X1]F[Tic][X1]K[Tic][X1]KR-NH2) | 162 µM (≈ 500 µg/mL) | 40.5 µM (≈ 125 µg/mL) | 162 µM (≈ 500 µg/mL) | 81 µM (≈ 250 µg/mL) | 162 µM (≈ 500 µg/mL) | 162 µM (≈ 500 µg/mL) | 40.5 µM (≈ 125 µg/mL) | 162 µM (≈ 500 µg/mL) | 162 µM (≈ 500 µg/mL) | 162 µM (≈ 500 µg/mL) | 500 µM (≈ 1540 µg/mL) |
